Reference: patent publication US20250064954A1, “STEROIDS AND ANTIBODY-CONJUGATES THEREOF” (REGENERON PHARMACEUTICALS, INC., priority 2018, published 2025)
Blank lines part the entries; values can stand above or below the compound they belong to.

Assays:
[1] = Solubility of payloads and linker-payloads; conditions: aqueous DMSO (20%)
[2] = target: T1, Glucocorticoid Receptor (GR) (Homo sapiens, UniProt P04150); test: Cell based GR responsive luciferase reporter assay in HEK293/UASLuc/pBIND-GR cells; conditions: for EC50: HEK293/UASLuc/pBIND-GR cells, 48 hours; for EC50 values after spacer attachment relative to parent steroid: comparison
T1 construct: host or cells: HEK293 stably expressing human full length PRLR
T1 sequence (P04150 524-758 limits assumed): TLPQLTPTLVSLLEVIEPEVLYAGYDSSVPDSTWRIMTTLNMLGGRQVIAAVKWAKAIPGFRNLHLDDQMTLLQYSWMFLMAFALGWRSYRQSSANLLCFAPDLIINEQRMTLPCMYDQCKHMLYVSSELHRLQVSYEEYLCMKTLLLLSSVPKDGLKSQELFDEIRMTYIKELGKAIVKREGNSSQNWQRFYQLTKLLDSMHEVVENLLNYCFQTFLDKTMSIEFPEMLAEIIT
Description: A cell-based GR responsive luciferase reporter assay was used to test the GR agonist activity of compounds described herein. In this assay, the following materials were used.
To generate the assay cell line, HEK293 cells were co-transfected with the pBind-GR (Promega, Cat #E158A) and pGL4.35 [Luc2P/9xGAL4UAS/Hygro] (Promega, Cat #E137A) vectors. The pBind-GR vector expresses a fusion protein consisting of the yeast Gal4DNA-binding domain and the GR ligand binding domain, that can bind to the Gal4 upstream activation sequence (UAS) in the luciferase expression vector and induce luciferase expression following GR agonist binding. The cells were selected for at least 2 weeks in G418+ hygromycin. The resulting cell line is referred to as HEK293/UASLuc/pBIND-GR.
Three-fold serial dilutions of test compounds were prepared in 100% DMSO, transferred to fresh assay media, and added to the cells. […] The last well in the plate served as blank control containing only the assay media and 0.2% DMSO (untreated well) and was plotted as a continuation of the 3-fold serial dilution.
Forty-eight hours later, luciferase activity was determined after the addition of One-Glo™ reagent (Promega, Cat #E6130). Relative light units (RLUs) were measured on an Envision luminometer (PerkinElmer) and EC50 values were determined using a four-parameter logistic equation over a 10-point dose response curve (GraphPad Prism). The signal to noise (S/N) was determined by taking the ratio of the highest RLU on the dose response curve to the RLU in the untreated wells.

[3] = target: T1, Glucocorticoid Receptor (GR); test: as above; conditions: ratio of highest RLU on the dose response curve to RLU in untreated wells, 48 hours
[4] = Plasma stability in human plasma; type: in vitro ADME; conditions: 37° C.; for Percent Remaining (%) 1 h / Percent Remaining (%) 8 h / Percent Remaining (%) 24 h / Percent Remaining (%) […]: BQL: Below Quantitation Limit
Method: Plasma stability can be measured according to the following protocol.
Preheated 0.05 M sodium phosphate and 0.07 M NaCl buffer, pH 7.4: 14.505 g/L Na2HPO4_12H2O, 1.483 g/L NaH2PO4_2H2O and 4.095 g/L NaCl were dissolved in deionized water. The basic solution was then titrated with the phosphoric acid to pH 7.40 and stored refrigerated for up to 7 days. pH was checked on the day of experiment and adjusted if outside specification of 7.4+/−0.1.
Plasma preparation: frozen plasma were thawed by placing at 37° C. The plasma was centrifuged at 3,000 rpm for 8 minutes to remove clots, pipetted and the supernatant was pooled as the plasma to be used in the experiment. The pH of the plasma was checked and recorded and only used within the range of pH 7.4 to pH 8. If higher than pH 8, the plasma was discarded. The initial pH of the plasma was not adjusted to pH 7.4 with acid or by bubbling with CO2. By using a 5% CO2 incubator and PBS buffer, a pH of 7.4 was reached after a 4 hour equilibrium dialysis time. The plasma was put on ice until used.
Test compounds and reference compounds spiking solution. 0.5 mM test compounds spiking solution A: 10 μL of 10 mM test compounds stock solution was added to 190 μL DMSO. 0.02 mM spiking solution B: 40 μL of spiking solution A were added to 960 μL of 0.05 mM Sodium phosphate buffer with 0.5% BSA.
The plasma and spiking solution B were pre-warmed at 37° C. for 5 min. 10 μL of pre-warmed spiking solution B was added into the wells designated for all the time points (0, 0.25, 1, 8, 24 h). For 0-min, 400 μL of ACN containing 1S was added to the wells of 0-min plate and then 90 μL of plasma was added. 90 μL of pre-warmed plasma was added into the wells designated for the time points (0.25, 1, 8, 24 h), and start timing. At 0.25, 1, 8, 24 h, 400 μL of ACN containing IS was added to the wells of corresponding plates, respectively, to stop the reaction. After quenching, the plates were shaken on a vibrator (IKA, MTS 2/4) for 10 min (600 rpm/min) and then centrifuged at 5594 g for 15 min (Thermo Multifuge×3R). 50 μL of the supernatant from each well was transferred into a 96-well sample plate containing 50 μL of ultra pure water (Millipore, ZMQS50F01) for LC/MS analysis.

SMILES: CCCC1O[C@@H]2C[C@H]3[C@@H]4C[C@H](F)C5=CC(=O)C=C[C@]5(C)[C@@]4(F)[C@@H](O)C[C@]3(C)[C@]2(C(=O)COCNC(=O)CNC(=O)OCc2ccc(NC(=O)[C@H](CCCNC(N)=O)NC(=O)[C@@H](NC(=O)CCOCCOCCOCCOCCNC(=O)CCC(=O)N3Cc4ccccc4C#Cc4ccccc43)C(C)C)cc2)O1 (some centres unmarked) [LP10]
solubility [1]: < 20 µg/mL

SMILES: CCCC1O[C@@H]2C[C@H]3[C@@H]4C[C@H](F)C5=CC(=O)C=C[C@]5(C)[C@@]4(F)[C@@H](O)C[C@]3(C)[C@]2(C(=O)COC(=O)c2ccc(CN)cc2)O1 (some centres unmarked) [Compound 105a]
fold less potent than 100 ([2]; EC50 comparison after spacer attachment to 100, text): 2.7 fold

SMILES: CCCC1O[C@@H]2C[C@H]3[C@@H]4CCC5=CC(=O)C=C[C@]5(C)[C@H]4[C@@H](O)C[C@]3(C)[C@]2(C(=O)COCNC(=O)CNC(=O)OCc2ccc(NC(=O)[C@H](CCCNC(N)=O)NC(=O)[C@@H](NC(=O)CCOCCOCCOCCOCCNC(=O)CCC(=O)N3Cc4ccccc4C#Cc4ccccc43)C(C)C)cc2)O1 (some centres unmarked) [LP9]
solubility [1]: < 20 µg/mL

SMILES: CCCC1O[C@@H]2C[C@H]3[C@@H]4C[C@H](F)C5=CC(=O)C=C[C@]5(C)[C@@]4(F)[C@@H](O)C[C@]3(C)[C@]2(C(=O)CO)O1 (stereo in doubt) [Compound 100, (1S,2S,4R,8S,9S,11S,12R,13S,19S)-12,19-Difluoro-11-hydroxy-8-(2-hydroxyacetyl)-9,13-dimethyl-6-propyl-5,7-dioxapentacyclo[10.8.0.0^2,^9.0^4,^8.0^13,^18]icosa-14,17-dien-16-one]
S/N [3]: 14.5
fold more potent than 1a (budesonide) ([2]; EC50 comparison): 5.6 fold
fold more potent than Dexamethasone ([2]; EC50 comparison): 5.9 fold
EC50 [2]: 0.0547 nM

half-life at 2 µM [4]: < 0.25 h
Percent Remaining (%) 0 h [4]: 100.00%
Percent Remaining (%) 1 h [4]: BQL
Percent Remaining (%) 8 h [4]: BQL
Percent Remaining (%) 24 h [4]: BQL
Percent Remaining (%) […] [4]: BQL
SMILES: CCN(CC)CCOC(=O)c1ccc(N)cc1 [Procaine]

SMILES: CCCC1O[C@@H]2C[C@H]3[C@@H]4C[C@H](F)C5=CC(=O)C=C[C@]5(C)[C@@]4(F)[C@@H](O)C[C@]3(C)[C@]2(C(=O)COCNC(=O)CN)O1 (stereo partly drawn) [Compound 103b, 2-Amino-N-({2-[(1S,2S,4R,8S,9S,11S,12R,13S,19S)-12,19-difluoro-11-hydroxy-9,13-dimethyl-16-oxo-6-propyl-5,7-dioxapentacyclo[10.8.0.0^2,^9.0^4,^8.0^13,^18]icosa-14,17-dien-8-yl]-2-oxoethoxy}methyl)acetamide]
S/N [3]: 16.6
EC50 values after spacer attachment relative to parent steroid [2]: comparable to 100
solubility (physchem): < 20 µg/mL

SMILES: CCCC1O[C@@H]2C[C@H]3[C@@H]4CCC5=CC(=O)C=C[C@]5(C)[C@H]4[C@@H](O)C[C@]3(C)[C@]2(C(=O)COCNC(=O)CN)O1 (stereo partly drawn) [Compound 103a, 2-Amino-N-({2-[(1S,2S,4R,8S,9S,11S,12S,13R)-11-hydroxy-9,13-dimethyl-16-oxo-6-propyl-5,7-dioxapentacyclo[10.8.0.0^2,^9.0^4,^8.0^13,^18]icosa-14,17-dien-8-yl]-2-oxoethoxy}methyl)acetamide]
half-life at 2 µM [4]: 16.8 h
Percent Remaining (%) 0 h [4]: 100.00%
Percent Remaining (%) 1 h [4]: 96.48%
Percent Remaining (%) 8 h [4]: 78.87%
Percent Remaining (%) 24 h [4]: 38.03%
Percent Remaining (%) […] [4]: 107.04%
S/N [3]: 14.6
EC50 [2]: 0.484 nM
EC50 values after spacer attachment relative to parent steroid [2]: comparable to 1a
solubility (physchem): < 20 µg/mL
